Usually IC50 stands for the point on the concentration scale where inhibition reaches its midpoint.

The subject of the first data set is KP4. Briefly: Cell viability assay (CellTiter Glo), pancreatic ductal adenocarcinoma KP4. It is filed as cell-based, human. Particulars: Homo sapiens, KP-4, 96 h, pancreatic cancer cell line KP4, 96 hours, CellTiter Glo; read-out: IC50 μM KP4. The gist of the method:
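KP4 cells seeded at 1,000–10,000 per well, treated 96 h with 9-point 3-fold dilutions from 30 μM top (4.6 nM–30 μM, duplicates; ≤0.25% DMSO). Viability by CellTiter Glo luminescence; % inhibition relative to DMSO-only wells, giving IC50, relative IC50 or % top inhibition.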
On the technique in general: In ATP-based viability assays light output follows the ATP content of the culture.
Regarding `COC(=O)[C@H]1Cc2c([nH]c3ccccc23)[C@H](c2ccc(NCC3CC3)cc2)N1C(=O)CCl` [Compound 83], the IC50 was under 0.01 µM.

On to `COC(=O)[C@H]1Cc2c([nH]c3ccccc23)[C@H](c2ccc(C(=O)OCC3(C)CC3)cc2)N1C(=O)CCl` [Compound 84], for which the IC50 was under 0.01 µM.

Turning to `COC(=O)[C@H]1Cc2c([nH]c3ccccc23)[C@H](c2ccc(C(=O)OCC3CCC3)cc2)N1C(=O)CCl` [Compound 85], the IC50 was under 0.01 µM.

For `COC(=O)[C@H]1Cc2c([nH]c3ccccc23)[C@H](c2ccc(C(=O)OCC3CCCC3)cc2)N1C(=O)CCl` [Compound 86], the IC50 was under 0.01 µM.

Turning to `COC(=O)[C@H]1Cc2c([nH]c3ccc(Br)cc23)[C@H](c2ccc(C(=O)OCC3CC3)cc2)N1C(=O)CCl` [Compound 87], the IC50 was under 0.01 µM.

For the compound `COC(=O)c1ccc([C@H]2c3[nH]c4ccc(Br)cc4c3C[C@H](C(=O)OC)N2C(=O)CCl)cc1` [Compound 88], the IC50 was under 0.01 µM.

With `COC(=O)[C@H]1Cc2c([nH]c3ccccc23)[C@H](c2ccc(C(=O)OCC3CCCCC3)cc2)N1C(=O)CCl` [Compound 89], the IC50 was under 0.01 µM.

Tested on in a further data set: not listed separately
Briefly: Whole blood stability, human. Type of data set: in vitro ADME. Particulars: 0 min. The source says: (§1) The results of the assay on stability in blood and IC50 values for pancreatic cancer cell line KP4 are given below in Table 24.
On to `COC(=O)[C@H]1Cc2c([nH]c3ccccc23)[C@H](c2ccc(NCC3CC3)cc2)N1C(=O)CCl` [Compound 83], for which the “Whole Blood Stability % Remaining at 37° C. Human” value is reported as 100.0%.

Consider `COC(=O)[C@H]1Cc2c([nH]c3ccccc23)[C@H](c2ccc(C(=O)OCC3(C)CC3)cc2)N1C(=O)CCl` [Compound 84], for which the “Whole Blood Stability % Remaining at 37° C. Human” value is recorded as 100.0%.

For `COC(=O)[C@H]1Cc2c([nH]c3ccccc23)[C@H](c2ccc(C(=O)OCC3CCC3)cc2)N1C(=O)CCl` [Compound 85], the “Whole Blood Stability % Remaining at 37° C. Human” value stood at 100.0%.

`COC(=O)[C@H]1Cc2c([nH]c3ccccc23)[C@H](c2ccc(C(=O)OCC3CCCC3)cc2)N1C(=O)CCl` [Compound 86]: the “Whole Blood Stability % Remaining at 37° C. Human” value turned out to be 100.0%.

With `COC(=O)[C@H]1Cc2c([nH]c3ccc(Br)cc23)[C@H](c2ccc(C(=O)OCC3CC3)cc2)N1C(=O)CCl` [Compound 87], the “Whole Blood Stability % Remaining at 37° C. Human” value is recorded as 100.0%.

As to `COC(=O)c1ccc([C@H]2c3[nH]c4ccc(Br)cc4c3C[C@H](C(=O)OC)N2C(=O)CCl)cc1` [Compound 88], the “Whole Blood Stability % Remaining at 37° C. Human” value turned out to be 100.0%.

For the compound `COC(=O)[C@H]1Cc2c([nH]c3ccccc23)[C@H](c2ccc(C(=O)OCC3CCCCC3)cc2)N1C(=O)CCl` [Compound 89], the “Whole Blood Stability % Remaining at 37° C. Human” value was found to be 100.0%.

The data set is the same for the next values; noted with them: 30 min.
For `COC(=O)[C@H]1Cc2c([nH]c3ccccc23)[C@H](c2ccc(NCC3CC3)cc2)N1C(=O)CCl` [Compound 83], the “Whole Blood Stability % Remaining at 37° C. Human” value was found to be 78.5%.

Turning to `COC(=O)[C@H]1Cc2c([nH]c3ccccc23)[C@H](c2ccc(C(=O)OCC3(C)CC3)cc2)N1C(=O)CCl` [Compound 84], the “Whole Blood Stability % Remaining at 37° C. Human” value was 87.7%.

For the compound `COC(=O)[C@H]1Cc2c([nH]c3ccccc23)[C@H](c2ccc(C(=O)OCC3CCC3)cc2)N1C(=O)CCl` [Compound 85], the “Whole Blood Stability % Remaining at 37° C. Human” value was found to be 73.5%.

As to `COC(=O)[C@H]1Cc2c([nH]c3ccccc23)[C@H](c2ccc(C(=O)OCC3CCCC3)cc2)N1C(=O)CCl` [Compound 86], the “Whole Blood Stability % Remaining at 37° C. Human” value was determined as 78.3%.

`COC(=O)[C@H]1Cc2c([nH]c3ccc(Br)cc23)[C@H](c2ccc(C(=O)OCC3CC3)cc2)N1C(=O)CCl` [Compound 87]: the “Whole Blood Stability % Remaining at 37° C. Human” value worked out at 63.2%.

For `COC(=O)c1ccc([C@H]2c3[nH]c4ccc(Br)cc4c3C[C@H](C(=O)OC)N2C(=O)CCl)cc1` [Compound 88], the “Whole Blood Stability % Remaining at 37° C. Human” value was found to be 56.4%.

On to `COC(=O)[C@H]1Cc2c([nH]c3ccccc23)[C@H](c2ccc(C(=O)OCC3CCCCC3)cc2)N1C(=O)CCl` [Compound 89], for which the “Whole Blood Stability % Remaining at 37° C. Human” value came out at 84.8%.

Staying with this data set, now noted: 60 min.
Take `COC(=O)[C@H]1Cc2c([nH]c3ccccc23)[C@H](c2ccc(NCC3CC3)cc2)N1C(=O)CCl` [Compound 83]: the “Whole Blood Stability % Remaining at 37° C. Human” value was 52.9%.

As to `COC(=O)[C@H]1Cc2c([nH]c3ccccc23)[C@H](c2ccc(C(=O)OCC3(C)CC3)cc2)N1C(=O)CCl` [Compound 84], the “Whole Blood Stability % Remaining at 37° C. Human” value stood at 58.3%.

As for `COC(=O)[C@H]1Cc2c([nH]c3ccccc23)[C@H](c2ccc(C(=O)OCC3CCC3)cc2)N1C(=O)CCl` [Compound 85], the “Whole Blood Stability % Remaining at 37° C. Human” value was found to be 54.4%.

On to `COC(=O)[C@H]1Cc2c([nH]c3ccccc23)[C@H](c2ccc(C(=O)OCC3CCCC3)cc2)N1C(=O)CCl` [Compound 86], for which the “Whole Blood Stability % Remaining at 37° C. Human” value worked out at 49.6%.

On to `COC(=O)[C@H]1Cc2c([nH]c3ccc(Br)cc23)[C@H](c2ccc(C(=O)OCC3CC3)cc2)N1C(=O)CCl` [Compound 87], for which the “Whole Blood Stability % Remaining at 37° C. Human” value was 32.2%.

Turning to `COC(=O)c1ccc([C@H]2c3[nH]c4ccc(Br)cc4c3C[C@H](C(=O)OC)N2C(=O)CCl)cc1` [Compound 88], the “Whole Blood Stability % Remaining at 37° C. Human” value was found to be 27.0%.

`COC(=O)[C@H]1Cc2c([nH]c3ccccc23)[C@H](c2ccc(C(=O)OCC3CCCCC3)cc2)N1C(=O)CCl` [Compound 89]: the “Whole Blood Stability % Remaining at 37° C. Human” value was found to be 91.2%.

Tested on in another data set: not listed separately
Briefly: Whole blood stability, mouse. It is filed as in vitro ADME. Particulars: 0 min.
Text: as §1
With `COC(=O)[C@H]1Cc2c([nH]c3ccccc23)[C@H](c2ccc(NCC3CC3)cc2)N1C(=O)CCl` [Compound 83], the “Whole Blood Stability % Remaining at 37° C. Mouse” value is recorded as 100.0%.

As to `COC(=O)[C@H]1Cc2c([nH]c3ccccc23)[C@H](c2ccc(C(=O)OCC3(C)CC3)cc2)N1C(=O)CCl` [Compound 84], the “Whole Blood Stability % Remaining at 37° C. Mouse” value was 100.0%.

Take `COC(=O)[C@H]1Cc2c([nH]c3ccccc23)[C@H](c2ccc(C(=O)OCC3CCC3)cc2)N1C(=O)CCl` [Compound 85]: the “Whole Blood Stability % Remaining at 37° C. Mouse” value is recorded as 100.0%.

For the compound `COC(=O)[C@H]1Cc2c([nH]c3ccccc23)[C@H](c2ccc(C(=O)OCC3CCCC3)cc2)N1C(=O)CCl` [Compound 86], the “Whole Blood Stability % Remaining at 37° C. Mouse” value amounted to 100.0%.

For the compound `COC(=O)[C@H]1Cc2c([nH]c3ccc(Br)cc23)[C@H](c2ccc(C(=O)OCC3CC3)cc2)N1C(=O)CCl` [Compound 87], the “Whole Blood Stability % Remaining at 37° C. Mouse” value is given as 100.0%.

`COC(=O)c1ccc([C@H]2c3[nH]c4ccc(Br)cc4c3C[C@H](C(=O)OC)N2C(=O)CCl)cc1` [Compound 88]: the “Whole Blood Stability % Remaining at 37° C. Mouse” value came to 100.0%.

As to `COC(=O)[C@H]1Cc2c([nH]c3ccccc23)[C@H](c2ccc(C(=O)OCC3CCCCC3)cc2)N1C(=O)CCl` [Compound 89], the “Whole Blood Stability % Remaining at 37° C. Mouse” value is on record as 100.0%.

Still in this data set, the particulars now being: 30 min.
Take `COC(=O)[C@H]1Cc2c([nH]c3ccccc23)[C@H](c2ccc(NCC3CC3)cc2)N1C(=O)CCl` [Compound 83]: the “Whole Blood Stability % Remaining at 37° C. Mouse” value worked out at 66.1%.

Turning to `COC(=O)[C@H]1Cc2c([nH]c3ccccc23)[C@H](c2ccc(C(=O)OCC3(C)CC3)cc2)N1C(=O)CCl` [Compound 84], the “Whole Blood Stability % Remaining at 37° C. Mouse” value turned out to be 0.0%.

Take `COC(=O)[C@H]1Cc2c([nH]c3ccccc23)[C@H](c2ccc(C(=O)OCC3CCC3)cc2)N1C(=O)CCl` [Compound 85]: the “Whole Blood Stability % Remaining at 37° C. Mouse” value stood at 0.0%.

As for `COC(=O)[C@H]1Cc2c([nH]c3ccccc23)[C@H](c2ccc(C(=O)OCC3CCCC3)cc2)N1C(=O)CCl` [Compound 86], the “Whole Blood Stability % Remaining at 37° C. Mouse” value is listed as 0.0%.

As for `COC(=O)[C@H]1Cc2c([nH]c3ccc(Br)cc23)[C@H](c2ccc(C(=O)OCC3CC3)cc2)N1C(=O)CCl` [Compound 87], the “Whole Blood Stability % Remaining at 37° C. Mouse” value was determined as 0.0%.

For `COC(=O)c1ccc([C@H]2c3[nH]c4ccc(Br)cc4c3C[C@H](C(=O)OC)N2C(=O)CCl)cc1` [Compound 88], the “Whole Blood Stability % Remaining at 37° C. Mouse” value amounted to 0.0%.

In the case of `COC(=O)[C@H]1Cc2c([nH]c3ccccc23)[C@H](c2ccc(C(=O)OCC3CCCCC3)cc2)N1C(=O)CCl` [Compound 89], the “Whole Blood Stability % Remaining at 37° C. Mouse” value was found to be 0.0%.

Staying with this data set, now noted: 60 min.
On to `COC(=O)[C@H]1Cc2c([nH]c3ccccc23)[C@H](c2ccc(NCC3CC3)cc2)N1C(=O)CCl` [Compound 83], for which the “Whole Blood Stability % Remaining at 37° C. Mouse” value was found to be 30.0%.

For `COC(=O)[C@H]1Cc2c([nH]c3ccccc23)[C@H](c2ccc(C(=O)OCC3(C)CC3)cc2)N1C(=O)CCl` [Compound 84], the “Whole Blood Stability % Remaining at 37° C. Mouse” value was found to be 0.0%.

Turning to `COC(=O)[C@H]1Cc2c([nH]c3ccccc23)[C@H](c2ccc(C(=O)OCC3CCC3)cc2)N1C(=O)CCl` [Compound 85], the “Whole Blood Stability % Remaining at 37° C. Mouse” value is reported as 0.0%.

For the compound `COC(=O)[C@H]1Cc2c([nH]c3ccccc23)[C@H](c2ccc(C(=O)OCC3CCCC3)cc2)N1C(=O)CCl` [Compound 86], the “Whole Blood Stability % Remaining at 37° C. Mouse” value is recorded as 0.0%.

`COC(=O)[C@H]1Cc2c([nH]c3ccc(Br)cc23)[C@H](c2ccc(C(=O)OCC3CC3)cc2)N1C(=O)CCl` [Compound 87]: the “Whole Blood Stability % Remaining at 37° C. Mouse” value came out at 0.0%.

Consider `COC(=O)c1ccc([C@H]2c3[nH]c4ccc(Br)cc4c3C[C@H](C(=O)OC)N2C(=O)CCl)cc1` [Compound 88], for which the “Whole Blood Stability % Remaining at 37° C. Mouse” value was found to be 0.0%.

With `COC(=O)[C@H]1Cc2c([nH]c3ccccc23)[C@H](c2ccc(C(=O)OCC3CCCCC3)cc2)N1C(=O)CCl` [Compound 89], the “Whole Blood Stability % Remaining at 37° C. Mouse” value was determined as 0.0%.

The values above are taken from patent publication US11098040B2, “Compounds and methods of use” (Ferro Therapeutics, Inc., priority 2018, dated 2021).
